Reference: patent US20130131321A1, “LIGANDS FOR ANTIBODY AND Fc-FUSION PROTEIN PURIFICATION BY AFFINITY CHROMATOGRAPHY” (GRAFFINITY PHARMACEUTICALS GMBH, priority 2010, published 2013)

What was measured:
[1] = system: Palivizumab; test: Microtiter plate chromatography of resins, Palivizumab (bound, yield); assay type: binding, humanized
Method: (§1) Resins were assessed in packed mode by microtiter plate chromatography. For each column, approximately 30 μl of resin were transferred to a 384-well filter plate and sealed with appropriate top frits.
(§2) Columns were equilibrated with 6.7 column volumes (cv) of phosphate buffered saline (0.15 M NaCl, 20 mM sodium phosphate, pH 7.3; PBS) prior to injection. Either 3.3 cv of whole IgGs dissolved at 0.75 mg ml^−1, Fab or Fc fragments dissolved at 0.25 mg ml^−1 (all three in PBS) or host cell proteins (HCP) were injected onto columns. Antibody fragments of Bevacizumab (Fab and Fc) were prepared by cleavage of whole IgG with papain protease (3) according to the protocol of the manufacturer. […] Volumes transferred were spun through columns at 50 g for 1-2 min. During injection of samples, acceleration was reduced to 10 g and centrifugation time increased to 5-10 min. Effluent fractions were collected in 384-well plates and concentrations of protein analyzed by Bradford assay. Protein masses mi, mft and me (see below) were calculated as the product of fraction volume and measured protein concentration.
(§3) The fraction of ‘bound’ protein was calculated as the difference between the total mass of protein injected mi and the mass of protein detected in the flowthrough mft, divided by the total mass of protein injected.
(§4) The ‘yield’ of protein was calculated as the mass of protein eluted me, divided by the mass of protein injected mi.
(§5) the fraction of ‘bound’ protein and the ‘yield’ of protein were calculated for each resin based on data for whole IgG-antibodies. In the case of Bevacizumab fragments and host cell proteins, only the fraction of ‘bound’ protein is given. Selectivity of resins was calculated from data for Bevacizumab Whole IgG and host cell proteins. Due to limited experimental precision, selectivity was truncated beyond values of 10.

[2] = system: Tocilizumab; test: Microtiter plate chromatography of resins, Tocilizumab (bound, yield); assay type: binding, humanized
Method: as §1, §2, §3, §4, §5

[3] = target: T1, Bevacizumab (Homo sapiens, UniProt P01857); test: Microtiter plate chromatography of resins, Bevacizumab whole IgG (bound, yield, selectivity); assay type: binding, humanized; conditions: for Bevacizumab IgG Bound (%): fraction of whole IgG Bevacizumab bound to resin; for Bevacizumab IgG Yield (%): mass of whole IgG Bevacizumab eluted / mass injected
T1 construct: fused on or other part: humanised anti-VEGF-A VH domain N-terminal of the gamma-1 constant region (engineered, no UniProt entry)
Method: as §1, §2, §3, §4
(§6) The ‘selectivity’ of resins was calculated as the fraction of bound antibody BAb, divided by the fraction of bound host cell proteins BHCP.
as §5

[4] = system: Bevacizumab; test: as above; assay type: binding, humanized
Method: as §1, §2, §3, §4, §6, §5

[5] = system: human poly-IgG (h-poly-IgG); test: Microtiter plate chromatography of resins, human poly-IgG (bound, yield); assay type: binding
Method: as §1, §2, §3, §4, §5

[6] = system: host cell proteins (HCP); test: Microtiter plate chromatography of resins, host cell proteins (bound); assay type: binding, CHO; conditions: host cell proteins
Method: Flowthrough from protein A chromatography (referred to as host cell proteins) was derived from the supernatant of antibody-producing CHO cell culture in serum-free medium.
as §1, §2, §3, §5

With COc1ccc(NC(=O)c2cc(-c3ccccc3)n(C)n2)cc1C(=O)NCCCN [Ligand L15, 2-Methoxy-5-(1-methyl-5-phenylpyrazol-3-yl)carboxamidobenzoic acid N-(3-aminopropyl)amide] the “Palivizumab Bound (%)” value [1] was 100%, the “Palivizumab Yield (%)” value [1] was 90% and the “Tocilizumab Bound (%)” value [2] was 100%. The “Tocilizumab Yield (%)” value [2] was 98%, the “Bevacizumab IgG Bound (%)” value [3] was 99% and the “Bevacizumab IgG Yield (%)” value [3] was 94%. The Selectivity [4] was 1.6, the “h-poly-IgG Bound (%)” value [5] was 98% and the “h-poly-IgG Yield (%)” value [5] was 83%. For the same compound, the “HCP Bound (%)” value [6] was 64%.
For COc1ccc(NC(=O)c2cc(-c3cccn3C)n(C)n2)cc1C(=O)NCCCN [Ligand L16, 2-Methoxy-5-[5-(1-methyl-2-pyrrolyl)-1-methylpyrazol-3-yl]carboxamidobenzoic acid N-(3-aminopropyl)amide], the “Palivizumab Bound (%)” value [1] was 100%, the “Palivizumab Yield (%)” value [1] was 90% and the “Tocilizumab Bound (%)” value [2] was 100%. For the same compound, the “Tocilizumab Yield (%)” value [2] was 96%, the “Bevacizumab IgG Bound (%)” value [3] was 100% and the “Bevacizumab IgG Yield (%)” value [3] was 93%. The Selectivity [4] was 2.0, the “h-poly-IgG Bound (%)” value [5] was 96% and the “h-poly-IgG Yield (%)” value [5] was 83%. For the same compound, the “HCP Bound (%)” value [6] was 51%.
Cn1nc(C(=O)Nc2ccc(C(=O)NCCCN)cc2)cc1-c1ccco1 [Ligand L18, 4-[5-(2-Furyl)-1-methylpyrazol-3-yl]carboxamidobenzoic acid N-(3-aminopropyl)amide] was tested, and the “Palivizumab Bound (%)” value [1] was 54%, the “Palivizumab Yield (%)” value [1] was 43% and the “Tocilizumab Bound (%)” value [2] was 76%. For the same compound, the “Tocilizumab Yield (%)” value [2] was 76%, the “Bevacizumab IgG Bound (%)” value [3] was 100% and the “Bevacizumab IgG Yield (%)” value [3] was 95%. The Selectivity [4] was 2.2, the “h-poly-IgG Bound (%)” value [5] was 68% and the “h-poly-IgG Yield (%)” value [5] was 71%. For the same compound, the “HCP Bound (%)” value [6] was 46%.
Cn1nc(C(=O)Nc2nc(C(=O)NCCCN)cs2)cc1-c1cccs1 [Ligand L19, 2-[1-Methyl-5-(2-thienyl)pyrazol-3-yl]carboxamidothiazole-4-carboxylic acid N-(3-aminopropyl)amide] was tested, and the “Palivizumab Bound (%)” value [1] was 18%, the “Palivizumab Yield (%)” value [1] was 16% and the “Tocilizumab Bound (%)” value [2] was 47%. For the same compound, the “Tocilizumab Yield (%)” value [2] was 48%, the “Bevacizumab IgG Bound (%)” value [3] was 100% and the “Bevacizumab IgG Yield (%)” value [3] was 99%. For the same compound, the Selectivity [4] was 1.8, the “h-poly-IgG Bound (%)” value [5] was 49% and the “h-poly-IgG Yield (%)” value [5] was 48%. For the same compound, the “HCP Bound (%)” value [6] was 56%.
For COc1ccc(NC(=O)c2cc(-c3ccco3)[nH]n2)cc1C(=O)NCCCN [Ligand L20, 5-[5-(2-Furyl)pyrazol-3-yl]carboxamido-2-methoxybenzoic acid N-(3-aminopropyl)amide], the “Palivizumab Bound (%)” value [1] was 97%, the “Palivizumab Yield (%)” value [1] was 84% and the “Tocilizumab Bound (%)” value [2] was 100%. The “Tocilizumab Yield (%)” value [2] was 96%, the “Bevacizumab IgG Bound (%)” value [3] was 100% and the “Bevacizumab IgG Yield (%)” value [3] was 96%. For the same compound, the Selectivity [4] was 2.1, the “h-poly-IgG Bound (%)” value [5] was 93% and the “h-poly-IgG Yield (%)” value [5] was 82%. For the same compound, the “HCP Bound (%)” value [6] was 47%.
For NCCCNC(=O)c1cccc(C(=O)Nc2cc(-c3ccco3)[nH]n2)c1 [Ligand L21, 3-{N-[5-(2-Furyl)pyrazol-3-yl]carbamoyl}benzoic acid N′-(3-aminopropyl)amide], the “Palivizumab Bound (%)” value [1] was 26%, the “Palivizumab Yield (%)” value [1] was 26% and the “Tocilizumab Bound (%)” value [2] was 52%. For the same compound, the “Tocilizumab Yield (%)” value [2] was 53%, the “Bevacizumab IgG Bound (%)” value [3] was 99% and the “Bevacizumab IgG Yield (%)” value [3] was 95%. For the same compound, the Selectivity [4] was 2.0, the “h-poly-IgG Bound (%)” value [5] was 54% and the “h-poly-IgG Yield (%)” value [5] was 61%. For the same compound, the “HCP Bound (%)” value [6] was 50%.
For COc1ccc(NC(=O)c2cn(C)c3ccccc23)cc1C(=O)NCCCN [Ligand L25, 2-Methoxy-5-(1-methylindol-3-yl)carboxamidobenzoic acid N-(3-aminopropyl)amide], the “Palivizumab Bound (%)” value [1] was 82%, the “Palivizumab Yield (%)” value [1] was 78% and the “Tocilizumab Bound (%)” value [2] was 100%. The “Tocilizumab Yield (%)” value [2] was 93%, the “Bevacizumab IgG Bound (%)” value [3] was 100% and the “Bevacizumab IgG Yield (%)” value [3] was 95%. For the same compound, the Selectivity [4] was 2.2, the “h-poly-IgG Bound (%)” value [5] was 93% and the “h-poly-IgG Yield (%)” value [5] was 81%. For the same compound, the “HCP Bound (%)” value [6] was 46%.
COc1ccc(NC(=O)c2c[nH]c3ccccc23)cc1C(=O)NCCCN [Ligand L26, 5-(Indol-3-yl)carboxamido-2-methoxybenzoic acid N-(3-aminopropyl)amide] was tested, and the “Palivizumab Bound (%)” value [1] was 58%, the “Palivizumab Yield (%)” value [1] was 59% and the “Tocilizumab Bound (%)” value [2] was 77%. The “Tocilizumab Yield (%)” value [2] was 84%, the “Bevacizumab IgG Bound (%)” value [3] was 100% and the “Bevacizumab IgG Yield (%)” value [3] was 94%. For the same compound, the Selectivity [4] was 2.4, the “h-poly-IgG Bound (%)” value [5] was 75% and the “h-poly-IgG Yield (%)” value [5] was 74%. The “HCP Bound (%)” value [6] was 42%.
COc1ccc(NC(=O)c2cc(-c3ccco3)n(C)n2)cc1C(=O)N(C)CCCN [Ligand L28, 5-[5-(2-Furyl)-1-methylpyrazol-3-yl]carboxamido-2-methoxybenzoic acid N-(3-aminopropyl)-N-methylamide] was tested, and the “Palivizumab Bound (%)” value [1] was 55%, the “Palivizumab Yield (%)” value [1] was 50% and the “Tocilizumab Bound (%)” value [2] was 63%. For the same compound, the “Tocilizumab Yield (%)” value [2] was 61%, the “Bevacizumab IgG Bound (%)” value [3] was 100% and the “Bevacizumab IgG Yield (%)” value [3] was 81%. The Selectivity [4] was 2.9, the “h-poly-IgG Bound (%)” value [5] was 58% and the “h-poly-IgG Yield (%)” value [5] was 44%. For the same compound, the “HCP Bound (%)” value [6] was 35%.
With CCOc1ccc(NC(=O)c2cc(-c3ccco3)n(C)n2)cc1C(=O)NCCCN [Ligand L29, 5-[5-(2-Furyl)-1-methylpyrazol-3-yl]carboxamido-2-ethoxybenzoic acid N-(3-aminopropyl)amide] the “Palivizumab Bound (%)” value [1] was 100%, the “Palivizumab Yield (%)” value [1] was 88% and the “Tocilizumab Bound (%)” value [2] was 100%. The “Tocilizumab Yield (%)” value [2] was 96%, the “Bevacizumab IgG Bound (%)” value [3] was 100% and the “Bevacizumab IgG Yield (%)” value [3] was 84%. The Selectivity [4] was 2.4, the “h-poly-IgG Bound (%)” value [5] was 95% and the “h-poly-IgG Yield (%)” value [5] was 70%. The “HCP Bound (%)” value [6] was 43%.
Cn1nc(C(=O)Nc2ccc(O)c(C(=O)NCCCN)c2)cc1-c1ccco1 [Ligand L30, 5-[5-(2-Furyl)-1-methylpyrazol-3-yl]carboxamido-2-hydroxybenzoic acid N-(3-aminopropyl)amide] was tested, and the “Palivizumab Bound (%)” value [1] was 68%, the “Palivizumab Yield (%)” value [1] was 66% and the “Tocilizumab Bound (%)” value [2] was 83%. The “Tocilizumab Yield (%)” value [2] was 79%, the “Bevacizumab IgG Bound (%)” value [3] was 100% and the “Bevacizumab IgG Yield (%)” value [3] was 93%. The Selectivity [4] was 2.4, the “h-poly-IgG Bound (%)” value [5] was 74% and the “h-poly-IgG Yield (%)” value [5] was 53%. The “HCP Bound (%)” value [6] was 42%.
For COc1ccc(NC(=O)c2onc3ccccc23)cc1C(=O)NCCCN [Ligand L31, 5-(Benzo[c]isoxazol-3-yl)carboxamido-2-methoxybenzoic acid N-(3-aminopropyl)amide], the “Palivizumab Bound (%)” value [1] was 99%, the “Palivizumab Yield (%)” value [1] was 94% and the “Tocilizumab Bound (%)” value [2] was 100%. The “Tocilizumab Yield (%)” value [2] was 98%, the “Bevacizumab IgG Bound (%)” value [3] was 100% and the “Bevacizumab IgG Yield (%)” value [3] was 96%. The Selectivity [4] was 4.4, the selectivity index ([4]; fraction of bound Bevacizumab whole IgG divided by fraction of bound HCP, truncated beyond 10) was 4.4 and the “h-poly-IgG Bound (%)” value [5] was 95%. For the same compound, the “h-poly-IgG Yield (%)” value [5] was 74% and the “HCP Bound (%)” value [6] was 23%.
With COc1ccc(NC(=O)c2occ3ccccc23)cc1C(=O)NCCCN [Ligand L32, 5-(Benzo[c]furan-1-yl)carboxamido-2-methoxybenzoic acid N-(3-aminopropyl)amide] the “Palivizumab Bound (%)” value [1] was 100%, the “Palivizumab Yield (%)” value [1] was 95% and the “Tocilizumab Bound (%)” value [2] was 100%. The “Tocilizumab Yield (%)” value [2] was 95%, the “Bevacizumab IgG Bound (%)” value [3] was 100% and the “Bevacizumab IgG Yield (%)” value [3] was 87%. For the same compound, the Selectivity [4] was 2.0, the “h-poly-IgG Bound (%)” value [5] was 95% and the “h-poly-IgG Yield (%)” value [5] was 74%. For the same compound, the “HCP Bound (%)” value [6] was 49%.
With COc1ccc(NC(=O)c2cc(C)n(C)n2)cc1C(=O)NCCCN [Ligand L33, 5-(1,5-Dimethylpyrazol-3-yl)carboxamido-2-methoxybenzoic acid N-(3-aminopropyl)amide] the “Palivizumab Bound (%)” value [1] was 33%, the “Palivizumab Yield (%)” value [1] was 31% and the “Tocilizumab Bound (%)” value [2] was 48%. The “Tocilizumab Yield (%)” value [2] was 51%, the “Bevacizumab IgG Bound (%)” value [3] was 99% and the “Bevacizumab IgG Yield (%)” value [3] was 83%. For the same compound, the Selectivity [4] was 5.8, the “h-poly-IgG Bound (%)” value [5] was 51% and the “h-poly-IgG Yield (%)” value [5] was 39%. For the same compound, the “HCP Bound (%)” value [6] was 17%.
